Assay results as given in patent US8163661B2, “Luminescence measurement system” (Olympus Corporation, priority 2007, dated 2012).

Columns and labels:
[1] = tested on: HeLa cell (pGL3 transfected); details: pGL3 transfected to HeLa cell, measured with time
Procedure: Specifically, in the experiments conducted by the present inventor, pGL3 was transfected to HeLa cell and, by making use of FCCP acting as an uncoupler, the production of ATP in mitochondria was suspended and then the luminescence intensity on this occasion was measured with time by making use of LUMINOVIEW (LV100) (trade name).

[2] = tested on: cytoplasmic ATP; details: 30 minutes after treatment with FCCP; cited from earlier work

For `N#CC(C#N)=NNc1ccc(OC(F)(F)F)cc1` [FCCP, carbonyl cyanide p-(trifluoromethoxy) phenylhydrazone], the “luminescence intensity after FCCP” value [1] is listed as “not attenuated” and the “concentration of cytoplasmic ATP relative to steady state” value [2] is listed as “about 50 % of that of steady state”.
